Results published in patent US20130024954A1, “Human Age-Related Neurodegenerative Nematode Model and Methods” (priority 2011, published 2013).

Legend:
[1] = tested on: egg-laying and swimming behaviors; assay: Egg-retention assay and swimming kinematics (behaviors that depend on VC4&5 neurons); format: in vivo, C. elegans; conditions: for egg-laying and swimming behaviors, SC_APPC59 strain (in words): data not shown; for behavioral deficits (swimming and egg laying) with age (in words): drug-treated SC_APP:mCh or SC_apl-1:mCh individuals
Protocol: Plates of non-starved adult worms were bleached to yield a synchronized population of eggs. Eggs were allowed to develop for ˜55 hours (day 1 adult) and ˜103 (day 3 adult) hours at 20° C. Animals were then individually dissolved in 1N NaOH, and eggs retained within the dissolved adult animal were counted.
Worms were submerged in NGM liquid and recorded for 1 minute following a 2-minute acclimation period. Spine analysis software was then used to calculate and plot the midbody angle of the worm as described in Pierce-Shimomura J T, Chen B L, Mun J J, Ho R, Sarkis R, McIntire S L. 2008. Genetic analysis of crawling and swimming locomotory patterns in C. elegans. Proc Natl Acad Sci USA. 105: 20982-7, incorporated by reference. Head-bend frequency was determined based on the average time it took an animal to make 20 complete-cycle head bends.

[2] = tested on: VC4 and VC5 neurons; assay: Quantification of percent neurodegeneration of VC4&5 neurons with drug treatment (Example 2); format: in vivo, C. elegans; conditions: for neurodegeneration induced by APP or apl-1 (in words): 50 μM from L4-larval stage onward, FIG. 25A; for degeneration with gain-of-function mutation in egl-1 (in words): SC_APP and SC_apl-1 strains with egl-1 gain-of-function mutation; for degeneration of VC4&5, SC_APPC59 strain (in words): SC_APPC59 strain (intracellular portion of APP); for degeneration of VC4&5, SC_APPC59 strain (in words) / degeneration of VC4&5, SC_APPN636 strain (in words): FIG. 31; for degeneration of VC4&5, SC_APPN636 strain (in words): SC_APPN636 strain (extracellular and transmembrane portion of APP); for degeneration in egl-1 (null) mutant background (in words): egl-1 (null) background, FIG. 25C
Protocol: All analyses were completed with the experimenter blind to genotype and drug treatment. Age-synchronized animals were immobilized on 2% agar pads containing 0.7 mM sodium azide. Neurons that had broken/missing axonal projections, dimly-lit somas with missing projections or absent GFP labeling in the appropriate neuronal location were classified as degenerating. Serotonin neurons included NSM, ADF, AIM, RIH, HSN class members. All animals were evaluated within 10 minutes of azide treatment. In cases where the worm strains were too defective in egg laying to reach day 3 or 5 adult stage, animals were treated at L4-larval stage onward with the sterilization drug 5-fluoro-2′-deoxyuridne (0.12 mM final) (Sigma). […] The percentage of VC4 and VC5 neurons that succumbed to APP-induced degeneration was compared for different groups (strain, age, drug condition) using planned non-parametric X^2 analyses.
Drugs were freshly prepared in buffer (M9) solution and pipetted onto small seeded plates. These plates were allowed to dry at least 2 hours at RT before use. The final drug concentrations of solid media are: Dimebon, 50 μM (Tocris); P7C3, 50 μM. Well-fed larval stage 4 animals were picked onto seeded plates with or without drug. Animals were then allowed to age at 20° C. for ˜20 (day 1 adult), ˜68 (day 3 adult) and ˜116 hours (day 5 adult) before analysis. Controls using buffer with no drug were performed on each strain for each assay, and each assay was repeated multiple (3-8) times. Data were then averaged and statistically compared with planned non-parametric X2 analyses (Zar, 1999).

[3] = tested on: adult-born neurons in the hippocampus; conditions: earlier reports; cited from earlier work
[4] = tested on: neurons VC4 and VC5; assay: Degeneration of VC4 and VC5 neurons in single-copy apl-1/huAPP695 overexpression worms treated with drugs (Example 1); format: in vivo, C. elegans; conditions: for APP-induced degeneration of VC4 and VC5 (in words): Example 1, FIG. 19, Table 3; for % degen / Day 1 (degenerated of counted) / Day 3 (degenerated of counted) / Day 5 (degenerated of counted): Dimebon
From the text: Many transgenic strains can be easily obtained from a public consortium (CGC), including those with specific neurons fluorescently labeled in a variety of colors. If not publicly available, these strains can be easily constructed using a PCR fusion approach. Final PCR products contain the GFP gene driven by a specific promoter-of-interest and are then microinjected into the gonad of adult wildtype animals. C. elegans have the ability to form a stable, functional extra-chromosomal array with injected PCR products. Therefore, they express injected DNA. Fluorescent worms are then crossed to the single-copy overexpression worms to generate overexpression worms with different identifiable sets of neurons labeled.

[5] = SC_huAPP695 strain, adult day 1
[6] = SC_huAPP695 strain, adult day 3
[7] = SC_huAPP695 strain, adult day 5

## O=c1[nH]c(=O)n([C@H]2C[C@H](O)[C@@H](CO)O2)cc1F [5-fluoro-2′-deoxyuridne]
[1]; 0.12 mM final, swimming kinematics
  swimming defect of single-copy APP or apl-1 strains after sterilization (in words): displayed the same defect
[2]; 0.12 mM final, from L4-larval stage onward (sterilization drug)
  effect on progression of degeneration of VC neurons (in words): no effect on the progression of degeneration of VC neurons

## Cc1ccc2c(c1)c1c(n2CCc2ccc(C)nc2)CCN(C)C1 [Dimebon]
[3]
  adult-born hippocampal neurons (in words): promote the survival (prevent death) of adult-born hippocampal neurons
[1]
  egg-laying and swimming behaviors, SC_APPC59 strain (in words): protection of egg-laying and swimming behaviors
  behavioral deficits (swimming and egg laying) with age (in words): without behavioral deficits
[2]
  neurodegeneration induced by APP or apl-1 (in words): prevented neurodegeneration
  degeneration with gain-of-function mutation in egl-1 (in words): failed to prevent degeneration
  degeneration of VC4&5, SC_APPC59 strain (in words): prevented degeneration
  degeneration of VC4&5, SC_APPN636 strain (in words): failed to provide protection
  degeneration in egl-1 (null) mutant background (in words): no further protection from degeneration
[4]
  APP-induced degeneration of VC4 and VC5 (in words): prevents APP-induced neurodegeneration
[4]; SC_apl-1 strain, adult day 1
  % degen: 8.97%
  Day 1 (degenerated of counted): 14 of 156
[4]; SC_apl-1 strain, adult day 3
  % degen: 15.88%
  Day 3 (degenerated of counted): 27 of 170
[4]; SC_apl-1 strain, adult day 5
  % degen: 17.64%
  Day 5 (degenerated of counted): 12 of 68
[4]; [5]
  % degen: 10.66%
  Day 1 (degenerated of counted): 13 of 122
[4]; [6]
  % degen: 15.45%
  Day 3 (degenerated of counted): 17 of 110
[4]; [7]
  % degen: 16.67%
  Day 5 (degenerated of counted): 13 of 78
[4]; Wild-type strain, adult day 1
  % degen: 4.63%
  Day 1 (degenerated of counted): 5 of 108
[4]; Wild-type strain, adult day 3
  % degen: 6.45%
  Day 3 (degenerated of counted): 8 of 124
[4]; Wild-type strain, adult day 5
  % degen: 12.93%
  Day 5 (degenerated of counted): 15 of 116

## CN1CCN2c3ccccc3Cc3ccccc3C2C1 (stereo not shown) [Mianserin]
[4]
  APP-induced degeneration of VC4 and VC5 (in words): prevent APP-induced degeneration

## CN1CCN2c3ncccc3Cc3ccccc3C2C1 (stereo not shown) [Mirtazapine]
[4]
  APP-induced degeneration of VC4 and VC5 (in words): prevent APP-induced degeneration

## OC(CNc1ccccc1)Cn1c2ccc(Br)cc2c2cc(Br)ccc21 (stereo not shown) [P7C3]
[3]
  adult-born hippocampal neurons (in words): increase the number of adult-born neurons in the hippocampus of mice
[1]
  egg-laying and swimming behaviors, SC_APPC59 strain (in words): protection of egg-laying and swimming behaviors
  behavioral deficits (swimming and egg laying) with age (in words): without behavioral deficits
[2]
  neurodegeneration induced by APP or apl-1 (in words): significantly prevented neurodegeneration
  degeneration with gain-of-function mutation in egl-1 (in words): failed to prevent degeneration
  degeneration of VC4&5, SC_APPC59 strain (in words): prevented degeneration
  degeneration of VC4&5, SC_APPN636 strain (in words): failed to provide protection
  degeneration in egl-1 (null) mutant background (in words): no further protection from degeneration
[2]; prevention of VC4&5 degeneration, FIG. 25B
  relative potency in dose response analysis: two-orders of magnitude more potent than Dimebon
